# Literature values as cited in patent US7431914B2, “Contrast agent” (GE Healthcare AS, priority 2003, dated 2008).
# Conditions: both the drug and the chelate conjugate
structure (smiles),measurement,value
CCCCc1nc(Cl)c(CO)n1Cc1ccc(-c2ccccc2-c2nn[nH]n2)cc1 [Losartan],excrete through the liver,more than 80%
